Assay results: the kinase profiling compilation of Christmann-Franck et al. (2016)

Key:
Test in all cases: radiometric filter-binding kinase assay
[1] = target: EPHB4 (human) (UniProt P54760)
[2] = target: MAPK9 (human) (UniProt P45984)
[3] = target: IKBKB (human) (UniProt O14920)
[4] = target: PIM3 (human) (UniProt Q86V86)
[5] = target: SRPK1 (human) (UniProt Q96SB4)
[6] = target: YES1 (human) (UniProt P07947)
[7] = system: PAK2 (human), Q13177 [T402E]
[8] = target: MAPKAPK2 (human) (UniProt P49137)
[9] = target: CDK2 CCNA2 (human) (UniProt P20248+P24941)
[10] = target: TBK1 (human) (UniProt Q9UHD2)
[11] = target: MARK4 (human) (UniProt Q96L34)
[12] = target: DAPK1 (human) (UniProt P53355)
[13] = target: MAP3K9 (human) (UniProt P80192)
[14] = target: BTK (human) (UniProt Q06187)
[15] = target: PIM2 (human) (UniProt Q9P1W9)
[16] = system: RPS6KB1 (human), P23443 [T412E]
[17] = target: PKN2 (human) (UniProt Q16513)
[18] = target: TTK (human) (UniProt P33981)
[19] = target: MAP2K1 (human) (UniProt Q02750)
[20] = target: PAK6 (human) (UniProt Q9NQU5)
[21] = target: MARK3 (human) (UniProt P27448)
[22] = target: CSNK2A1 (human) (UniProt P68400)
[23] = target: GCK (human) (UniProt Q12851)
[24] = target: RPS6KA5 KD1 KD2 (human) (UniProt O75582)
[25] = target: EPHA4 (human) (UniProt P54764)
[26] = target: STK3 (human) (UniProt Q13188)
[27] = target: CHEK1 (human) (UniProt O14757)
[28] = target: MYLK (human) (UniProt Q15746)
[29] = target: MKNK2 (human) (UniProt Q9HBH9)
[30] = target: NEK6 (human) (UniProt Q9HC98)
[31] = target: PIM1 (human) (UniProt P11309)
[32] = target: INSRR (human) (UniProt P14616)
[33] = target: EEF2K (human) (UniProt O00418)
[34] = target: MAP2K2 (human) (UniProt P36507); details: compound 10.0 µM
[35] = target: EPHB1 (human) (UniProt P54762); details: compound 10.0 µM

Sequence of EPHA4 (human) (P54764 whole entry, looked up): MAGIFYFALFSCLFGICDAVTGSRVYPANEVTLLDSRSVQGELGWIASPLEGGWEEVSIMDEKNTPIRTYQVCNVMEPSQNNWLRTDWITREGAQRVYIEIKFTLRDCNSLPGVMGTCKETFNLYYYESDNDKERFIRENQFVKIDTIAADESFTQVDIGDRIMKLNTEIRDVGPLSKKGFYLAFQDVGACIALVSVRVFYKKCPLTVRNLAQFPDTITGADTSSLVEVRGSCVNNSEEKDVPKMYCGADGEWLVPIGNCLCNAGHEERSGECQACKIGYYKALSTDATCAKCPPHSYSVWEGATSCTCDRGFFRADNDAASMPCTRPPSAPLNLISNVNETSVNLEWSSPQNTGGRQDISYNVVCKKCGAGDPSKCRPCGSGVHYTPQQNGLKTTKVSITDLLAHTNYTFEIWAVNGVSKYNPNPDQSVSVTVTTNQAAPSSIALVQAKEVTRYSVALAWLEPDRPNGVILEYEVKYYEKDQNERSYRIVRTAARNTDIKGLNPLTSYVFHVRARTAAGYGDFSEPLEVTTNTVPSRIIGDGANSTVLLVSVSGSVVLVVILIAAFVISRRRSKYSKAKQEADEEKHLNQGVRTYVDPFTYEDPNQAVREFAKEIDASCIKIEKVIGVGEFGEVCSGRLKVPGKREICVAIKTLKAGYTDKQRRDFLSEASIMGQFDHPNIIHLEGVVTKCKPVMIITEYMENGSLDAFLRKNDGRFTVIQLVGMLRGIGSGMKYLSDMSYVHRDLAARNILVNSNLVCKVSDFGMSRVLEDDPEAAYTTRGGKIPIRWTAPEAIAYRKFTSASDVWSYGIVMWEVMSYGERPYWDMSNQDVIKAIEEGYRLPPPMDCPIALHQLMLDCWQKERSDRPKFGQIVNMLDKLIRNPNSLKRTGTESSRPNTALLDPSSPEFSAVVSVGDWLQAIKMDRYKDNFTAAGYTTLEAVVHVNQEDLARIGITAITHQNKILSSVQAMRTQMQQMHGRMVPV
Sequence of RPS6KB1 (human), P23443 [T412E] (P23443 whole entry T412E, looked up): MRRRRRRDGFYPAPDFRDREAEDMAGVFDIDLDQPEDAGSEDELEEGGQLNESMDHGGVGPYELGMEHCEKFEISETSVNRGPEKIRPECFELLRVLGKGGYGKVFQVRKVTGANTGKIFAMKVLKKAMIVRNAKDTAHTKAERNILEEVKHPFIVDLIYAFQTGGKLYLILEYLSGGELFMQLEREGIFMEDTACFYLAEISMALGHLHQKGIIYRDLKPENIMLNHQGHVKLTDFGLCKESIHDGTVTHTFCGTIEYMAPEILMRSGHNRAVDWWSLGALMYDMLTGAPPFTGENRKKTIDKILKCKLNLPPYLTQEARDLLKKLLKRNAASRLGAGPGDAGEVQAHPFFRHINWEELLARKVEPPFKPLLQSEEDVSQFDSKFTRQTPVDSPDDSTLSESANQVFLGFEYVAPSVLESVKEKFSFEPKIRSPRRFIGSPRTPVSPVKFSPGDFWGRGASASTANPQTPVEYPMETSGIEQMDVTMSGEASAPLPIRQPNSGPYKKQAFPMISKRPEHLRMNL
Sequence of EEF2K (human) (O00418 whole entry, looked up): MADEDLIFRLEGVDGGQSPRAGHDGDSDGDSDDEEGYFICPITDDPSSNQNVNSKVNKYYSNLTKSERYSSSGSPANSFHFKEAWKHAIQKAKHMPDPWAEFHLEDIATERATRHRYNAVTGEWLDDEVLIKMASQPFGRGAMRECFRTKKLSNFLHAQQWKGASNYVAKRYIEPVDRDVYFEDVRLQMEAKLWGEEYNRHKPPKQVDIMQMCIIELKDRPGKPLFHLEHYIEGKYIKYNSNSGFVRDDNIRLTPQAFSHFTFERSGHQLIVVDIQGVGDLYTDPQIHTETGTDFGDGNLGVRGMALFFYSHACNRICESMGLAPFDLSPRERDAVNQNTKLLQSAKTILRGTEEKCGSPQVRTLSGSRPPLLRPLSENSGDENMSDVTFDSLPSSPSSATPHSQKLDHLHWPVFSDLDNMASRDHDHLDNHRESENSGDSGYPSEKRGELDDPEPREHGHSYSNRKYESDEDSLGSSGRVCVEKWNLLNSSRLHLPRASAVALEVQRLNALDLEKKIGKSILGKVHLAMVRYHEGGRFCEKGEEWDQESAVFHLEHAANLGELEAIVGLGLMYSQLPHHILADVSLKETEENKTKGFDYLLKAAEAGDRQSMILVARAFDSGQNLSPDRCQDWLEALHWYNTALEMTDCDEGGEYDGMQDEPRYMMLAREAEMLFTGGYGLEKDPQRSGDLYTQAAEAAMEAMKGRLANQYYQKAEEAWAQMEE
Sequence of TBK1 (human) (Q9UHD2 whole entry, looked up): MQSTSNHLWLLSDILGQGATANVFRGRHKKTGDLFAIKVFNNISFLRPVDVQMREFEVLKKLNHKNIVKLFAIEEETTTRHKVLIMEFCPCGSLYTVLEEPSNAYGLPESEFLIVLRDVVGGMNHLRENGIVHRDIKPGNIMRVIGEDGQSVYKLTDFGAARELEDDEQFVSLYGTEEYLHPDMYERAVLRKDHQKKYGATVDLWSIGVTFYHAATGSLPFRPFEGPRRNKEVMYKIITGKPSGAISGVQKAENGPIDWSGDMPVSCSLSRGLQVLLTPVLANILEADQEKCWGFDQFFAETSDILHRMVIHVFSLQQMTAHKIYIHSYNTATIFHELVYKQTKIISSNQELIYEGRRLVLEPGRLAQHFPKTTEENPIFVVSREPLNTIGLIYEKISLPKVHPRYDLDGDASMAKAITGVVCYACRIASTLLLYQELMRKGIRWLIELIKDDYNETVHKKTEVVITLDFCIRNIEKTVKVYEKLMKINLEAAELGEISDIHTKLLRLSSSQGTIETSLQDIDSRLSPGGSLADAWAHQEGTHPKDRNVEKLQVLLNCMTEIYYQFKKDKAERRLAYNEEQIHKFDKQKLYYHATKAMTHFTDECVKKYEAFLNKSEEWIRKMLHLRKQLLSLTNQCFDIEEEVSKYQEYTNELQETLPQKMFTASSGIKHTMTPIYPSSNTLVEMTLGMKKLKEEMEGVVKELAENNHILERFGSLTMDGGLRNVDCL
Sequence of PAK6 (human) (Q9NQU5 whole entry, looked up): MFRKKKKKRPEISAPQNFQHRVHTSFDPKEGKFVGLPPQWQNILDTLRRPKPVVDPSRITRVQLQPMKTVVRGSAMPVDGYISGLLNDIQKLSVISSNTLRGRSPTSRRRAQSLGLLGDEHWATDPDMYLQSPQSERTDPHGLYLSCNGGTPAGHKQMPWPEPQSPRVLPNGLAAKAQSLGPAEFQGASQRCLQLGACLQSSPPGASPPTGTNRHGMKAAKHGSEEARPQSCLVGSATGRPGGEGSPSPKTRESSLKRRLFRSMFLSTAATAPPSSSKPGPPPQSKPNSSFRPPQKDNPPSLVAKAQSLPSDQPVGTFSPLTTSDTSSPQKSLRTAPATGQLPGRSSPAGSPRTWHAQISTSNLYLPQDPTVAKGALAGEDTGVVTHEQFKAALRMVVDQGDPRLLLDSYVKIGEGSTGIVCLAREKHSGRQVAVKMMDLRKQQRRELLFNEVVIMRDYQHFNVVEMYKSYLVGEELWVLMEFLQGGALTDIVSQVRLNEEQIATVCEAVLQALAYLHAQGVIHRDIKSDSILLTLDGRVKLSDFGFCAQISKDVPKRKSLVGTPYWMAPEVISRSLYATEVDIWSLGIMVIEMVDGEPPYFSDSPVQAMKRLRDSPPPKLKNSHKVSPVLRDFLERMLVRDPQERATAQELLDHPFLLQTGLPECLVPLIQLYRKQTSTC
Sequence of MAPK9 (human) (P45984 whole entry, looked up): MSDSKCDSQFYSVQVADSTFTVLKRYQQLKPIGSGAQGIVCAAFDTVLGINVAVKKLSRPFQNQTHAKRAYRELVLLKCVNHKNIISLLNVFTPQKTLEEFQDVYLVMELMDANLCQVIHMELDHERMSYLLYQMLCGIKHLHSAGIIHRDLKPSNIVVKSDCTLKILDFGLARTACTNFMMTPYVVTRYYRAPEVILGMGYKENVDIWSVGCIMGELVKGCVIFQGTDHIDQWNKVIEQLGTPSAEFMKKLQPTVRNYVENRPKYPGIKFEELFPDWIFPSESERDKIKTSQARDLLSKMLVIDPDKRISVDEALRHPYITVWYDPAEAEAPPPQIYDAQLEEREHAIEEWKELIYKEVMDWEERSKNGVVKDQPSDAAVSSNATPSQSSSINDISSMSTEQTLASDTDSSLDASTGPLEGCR
Sequence of PKN2 (human) (Q16513 whole entry, looked up): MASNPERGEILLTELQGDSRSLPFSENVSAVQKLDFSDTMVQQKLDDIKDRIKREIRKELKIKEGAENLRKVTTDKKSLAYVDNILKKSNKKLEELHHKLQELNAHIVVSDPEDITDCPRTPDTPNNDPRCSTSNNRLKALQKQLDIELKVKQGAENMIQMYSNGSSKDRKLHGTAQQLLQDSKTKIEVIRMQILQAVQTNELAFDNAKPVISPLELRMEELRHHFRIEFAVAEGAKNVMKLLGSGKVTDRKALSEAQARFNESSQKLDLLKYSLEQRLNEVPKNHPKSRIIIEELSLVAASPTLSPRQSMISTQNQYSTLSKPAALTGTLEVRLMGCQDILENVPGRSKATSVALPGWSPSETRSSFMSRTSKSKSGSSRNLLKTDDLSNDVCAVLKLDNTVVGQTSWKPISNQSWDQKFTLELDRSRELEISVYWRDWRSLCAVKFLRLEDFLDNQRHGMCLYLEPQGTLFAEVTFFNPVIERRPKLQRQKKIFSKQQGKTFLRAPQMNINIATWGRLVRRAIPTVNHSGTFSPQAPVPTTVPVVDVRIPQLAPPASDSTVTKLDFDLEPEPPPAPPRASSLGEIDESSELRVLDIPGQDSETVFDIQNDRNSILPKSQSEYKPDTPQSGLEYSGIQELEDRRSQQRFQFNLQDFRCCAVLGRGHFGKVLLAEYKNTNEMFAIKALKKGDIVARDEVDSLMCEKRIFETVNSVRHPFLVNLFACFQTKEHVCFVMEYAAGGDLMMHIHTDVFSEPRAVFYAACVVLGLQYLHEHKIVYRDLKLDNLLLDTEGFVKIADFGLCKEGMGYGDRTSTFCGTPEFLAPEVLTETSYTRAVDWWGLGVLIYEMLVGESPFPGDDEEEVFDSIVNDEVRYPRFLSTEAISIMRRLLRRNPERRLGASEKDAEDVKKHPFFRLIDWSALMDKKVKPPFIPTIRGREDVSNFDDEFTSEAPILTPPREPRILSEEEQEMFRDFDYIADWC

## Cc1cccc(-c2nn(C(=S)Nc3ccccc3)cc2-c2ccnc3ccccc23)n1
[1]; compound 0.1 µM
  residual activity: 93%
[1]; compound 1.0 µM
  residual activity: 93%
[2]; compound 0.1 µM
  residual activity: 105%
[2]; compound 1.0 µM
  residual activity: 90%
[3]; compound 0.1 µM
  residual activity: 107%
[3]; compound 1.0 µM
  residual activity: 100%
[4]; compound 0.1 µM
  residual activity: 91%
[4]; compound 1.0 µM
  residual activity: 117%
[5]; compound 0.1 µM
  residual activity: 101%
[5]; compound 1.0 µM
  residual activity: 84%
[6]; compound 0.1 µM
  residual activity: 106%
[6]; compound 1.0 µM
  residual activity: 70%
[7]; compound 0.1 µM
  residual activity: 111%
[7]; compound 1.0 µM
  residual activity: 101%
[8]; compound 0.1 µM
  residual activity: 117%
[8]; compound 1.0 µM
  residual activity: 108%
[9]; compound 0.1 µM
  residual activity: 93%
[9]; compound 1.0 µM
  residual activity: 102%
[10]; compound 0.1 µM
  residual activity: 102%
[10]; compound 1.0 µM
  residual activity: 106%
[11]; compound 0.1 µM
  residual activity: 98%
[11]; compound 1.0 µM
  residual activity: 87%
[12]; compound 0.1 µM
  residual activity: 94%
[12]; compound 1.0 µM
  residual activity: 90%
[13]; compound 0.1 µM
  residual activity: 96%
[13]; compound 1.0 µM
  residual activity: 86%
[14]; compound 0.1 µM
  residual activity: 110%
[14]; compound 1.0 µM
  residual activity: 104%
[15]; compound 0.1 µM
  residual activity: 97%
[15]; compound 1.0 µM
  residual activity: 94%
[16]; compound 0.1 µM
  residual activity: 108%
[16]; compound 1.0 µM
  residual activity: 105%
[17]; compound 0.1 µM
  residual activity: 105%
[17]; compound 1.0 µM
  residual activity: 91%
[18]; compound 0.1 µM
  residual activity: 113%
[18]; compound 1.0 µM
  residual activity: 98%
[19]; compound 1.0 µM
  residual activity: 98%
[20]; compound 0.1 µM
  residual activity: 111%
[20]; compound 1.0 µM
  residual activity: 113%
[21]; compound 0.1 µM
  residual activity: 101%
[21]; compound 1.0 µM
  residual activity: 98%
[22]; compound 0.1 µM
  residual activity: 102%
[22]; compound 1.0 µM
  residual activity: 104%
[23]; compound 0.1 µM
  residual activity: 98%
[23]; compound 1.0 µM
  residual activity: 68%
[24]; compound 0.1 µM
  residual activity: 110%
[24]; compound 1.0 µM
  residual activity: 101%
[25]; compound 0.1 µM
  residual activity: 108%
[25]; compound 1.0 µM
  residual activity: 98%
[26]; compound 0.1 µM
  residual activity: 107%
[26]; compound 1.0 µM
  residual activity: 100%
[27]; compound 0.1 µM
  residual activity: 107%
[27]; compound 1.0 µM
  residual activity: 105%
[28]; compound 0.1 µM
  residual activity: 104%
[28]; compound 1.0 µM
  residual activity: 89%
[29]; compound 0.1 µM
  residual activity: 81%
[29]; compound 1.0 µM
  residual activity: 91%
[30]; compound 0.1 µM
  residual activity: 107%
[30]; compound 1.0 µM
  residual activity: 100%
[31]; compound 0.1 µM
  residual activity: 105%
[31]; compound 1.0 µM
  residual activity: 97%
[32]; compound 0.1 µM
  residual activity: 98%
[32]; compound 1.0 µM
  residual activity: 103%
[33]; compound 0.1 µM
  residual activity: 102%
[33]; compound 1.0 µM
  residual activity: 100%

## CCOC(=O)c1ccc(N2NC(=O)/C(=C/c3ccc([N+](=O)[O-])o3)C2=O)cc1
[34]
  residual activity: 9%
[1]; compound 10.0 µM
  residual activity: 89%
[2]; compound 10.0 µM
  residual activity: 93%
[3]; compound 10.0 µM
  residual activity: 108%
[4]; compound 10.0 µM
  residual activity: 92%
[35]
  residual activity: 85%
[5]; compound 10.0 µM
  residual activity: 76%
[6]; compound 10.0 µM
  residual activity: 110%
[7]; compound 10.0 µM
  residual activity: 91%
[8]; compound 10.0 µM
  residual activity: 78%
[9]; compound 10.0 µM
  residual activity: 110%
[10]; compound 10.0 µM
  residual activity: 100%
[11]; compound 10.0 µM
  residual activity: 52%
[12]; compound 10.0 µM
  residual activity: 112%
[13]; compound 10.0 µM
  residual activity: 78%
[14]; compound 10.0 µM
  residual activity: 70%
[15]; compound 10.0 µM
  residual activity: 107%
[16]; compound 10.0 µM
  residual activity: 120%
[17]; compound 10.0 µM
  residual activity: 105%
[18]; compound 10.0 µM
  residual activity: 90%
[19]; compound 10.0 µM
  residual activity: 29%
[20]; compound 10.0 µM
  residual activity: 133%
[21]; compound 10.0 µM
  residual activity: 84%
[22]; compound 10.0 µM
  residual activity: 106%
[23]; compound 10.0 µM
  residual activity: 96%
[24]; compound 10.0 µM
  residual activity: 62%
[25]; compound 10.0 µM
  residual activity: 75%
[26]; compound 10.0 µM
  residual activity: 122%
[27]; compound 10.0 µM
  residual activity: 164%
[28]; compound 10.0 µM
  residual activity: 109%
[29]; compound 10.0 µM
  residual activity: 89%
[30]; compound 10.0 µM
  residual activity: 106%
[31]; compound 10.0 µM
  residual activity: 109%
[32]; compound 10.0 µM
  residual activity: 106%
[33]; compound 10.0 µM
  residual activity: 97%
